The source of these data is patent US20250154141A1 (University of Florida Research Foundation, Incorporated, priority 2021, published 2025).

Read-outs that look alike come from different tables or passages of the source.

One test relates to RS4; 11. The test is described as follows: Cell viability assay (MTS) in RS4; 11 cells. To be noted: Homo sapiens, RS4-11. Format: cell-based. Here is the method: (§1) Acute lymphoblastic leukemia cells (MOLT-4 and RS4; 11) were incubated with increasing concentrations of Bcl-xL degraders for 48 h. Cell viability was measured by tetrazolium-based MTS assay.
In the next test the test system is MOLT-4. Description: Cell viability assay (MTS) in MOLT-4 cells. Format: cell-based. To be noted: Homo sapiens, MOLT-4. As to the method:
as §1

Setting [1] is: Table 2, 48 hr, MTS, read-out: Anti-Cancer Activity IC50 (48 hr) RS4, 11.
Setting [2] is: Table 2, 48 hr, MTS, read-out: Anti-Cancer Activity IC50 (48 hr) MOLT-4.

For `Cc1ncsc1-c1ccc([C@H](C)NC(=O)[C@@H]2C[C@@H](O)CN2C(=O)[C@@H](NC(=O)CNC(=O)c2ccc(N3CCN(CC4(C)CCC(c5ccc(Cl)cc5)=C(CN5CCN(c6ccc(C(=O)NS(=O)(=O)c7ccc(N[C@H](CCN8CCOCC8)CSc8ccccc8)c(S(=O)(=O)C(F)(F)F)c7)cc6)CC5)C4)CC3)nc2)C(C)(C)C)cc1` (stereo partly drawn) [Compound 1], the IC50 in the test with RS4; 11 (setting [1]) lay in the range of 100 to 500 nM; with MOLT-4 (setting [2]), 20 to 100 nM.
The like results for `Cc1ncsc1-c1ccc([C@H](C)NC(=O)[C@@H]2C[C@@H](O)CN2C(=O)[C@@H](NC(=O)CCCNC(=O)c2ccc(N3CCN(CC4(C)CCC(c5ccc(Cl)cc5)=C(CN5CCN(c6ccc(C(=O)NS(=O)(=O)c7ccc(N[C@H](CCN8CCOCC8)CSc8ccccc8)c(S(=O)(=O)C(F)(F)F)c7)cc6)CC5)C4)CC3)nc2)C(C)(C)C)cc1` (stereo partly drawn) [Compound 2] were, in that order, 20 to 100 nM and 20 to 100 nM.
The corresponding values for `Cc1ncsc1-c1ccc([C@H](C)NC(=O)[C@@H]2C[C@@H](O)CN2C(=O)[C@@H](NC(=O)CCCNC(=O)c2ccc(N3CCN(CC4(C)CCC(c5ccc(Cl)cc5)=C(CN5CCN(c6ccc(C(=O)NS(=O)(=O)c7ccc(N[C@H](CCN8CCOCC8)CSc8ccccc8)c(S(=O)(=O)C(F)(F)F)c7)cc6)CC5)C4)CC3)cn2)C(C)(C)C)cc1` (stereo partly drawn) [Compound 4] are 20 to 100 nM and 20 to 100 nM.
The like results for `Cc1ncsc1-c1ccc([C@H](C)NC(=O)[C@@H]2C[C@@H](O)CN2C(=O)[C@@H](NC(=O)CCCCCNC(=O)c2ccc(N3CCN(CC4(C)CCC(c5ccc(Cl)cc5)=C(CN5CCN(c6ccc(C(=O)NS(=O)(=O)c7ccc(N[C@H](CCN8CCOCC8)CSc8ccccc8)c(S(=O)(=O)C(F)(F)F)c7)cc6)CC5)C4)CC3)cn2)C(C)(C)C)cc1` (stereo partly drawn) [Compound 5] were, in that order, 100 to 500 nM and 20 to 100 nM.
In the case of `Cc1ncsc1-c1ccc([C@H](C)NC(=O)[C@@H]2C[C@@H](O)CN2C(=O)[C@@H](NC(=O)CCCCCCCNC(=O)c2ccc(N3CCN(CC4(C)CCC(c5ccc(Cl)cc5)=C(CN5CCN(c6ccc(C(=O)NS(=O)(=O)c7ccc(N[C@H](CCN8CCOCC8)CSc8ccccc8)c(S(=O)(=O)C(F)(F)F)c7)cc6)CC5)C4)CC3)cn2)C(C)(C)C)cc1` (stereo partly drawn) [Compound 6], the values for the IC50 in the test with RS4; 11 (setting [1]) and in the test on MOLT-4 (setting [2]) were 100 to 500 nM and 500 to 10000 nM, respectively.
The corresponding values for `Cc1ncsc1-c1ccc([C@H](C)NC(=O)[C@@H]2C[C@@H](O)CN2C(=O)[C@@H](NC(=O)CNC(=O)c2ccc(N3CCN(CCN(C)CC4(C)CCC(c5ccc(Cl)cc5)=C(CN5CCN(c6ccc(C(=O)NS(=O)(=O)c7ccc(N[C@H](CCN8CCOCC8)CSc8ccccc8)c(S(=O)(=O)C(F)(F)F)c7)cc6)CC5)C4)CC3)nc2)C(C)(C)C)cc1` (stereo partly drawn) [Compound 7] are 20 to 100 nM and 100 to 500 nM.
The like results for `Cc1ncsc1-c1ccc([C@H](C)NC(=O)[C@@H]2C[C@@H](O)CN2C(=O)[C@@H](NC(=O)CCCNC(=O)c2ccc(N3CCN(CCN(C)CC4(C)CCC(c5ccc(Cl)cc5)=C(CN5CCN(c6ccc(C(=O)NS(=O)(=O)c7ccc(N[C@H](CCN8CCOCC8)CSc8ccccc8)c(S(=O)(=O)C(F)(F)F)c7)cc6)CC5)C4)CC3)nc2)C(C)(C)C)cc1` (stereo partly drawn) [Compound 8] were, in that order, 20 to 100 nM and 20 to 100 nM.
The like results for `Cc1ncsc1-c1ccc([C@H](C)NC(=O)[C@@H]2C[C@@H](O)CN2C(=O)[C@@H](NC(=O)CCCCCNC(=O)c2ccc(N3CCN(CCN(C)CC4(C)CCC(c5ccc(Cl)cc5)=C(CN5CCN(c6ccc(C(=O)NS(=O)(=O)c7ccc(N[C@H](CCN8CCOCC8)CSc8ccccc8)c(S(=O)(=O)C(F)(F)F)c7)cc6)CC5)C4)CC3)nc2)C(C)(C)C)cc1` (stereo partly drawn) [Compound 9] were, in that order, 20 to 100 nM and 20 to 100 nM.
In the case of `Cc1ncsc1-c1ccc([C@H](C)NC(=O)[C@@H]2C[C@@H](O)CN2C(=O)[C@@H](NC(=O)CNC(=O)c2ccc(N3CCN(CC4(C)CCC(c5ccc(Cl)cc5)=C(CN5CCN(c6ccc(C(=O)NS(=O)(=O)c7ccc(N[C@H](CCN8CCOCC8)CSc8ccccc8)c(S(=O)(=O)C(F)(F)F)c7)cc6)CC5)C4)CC3)cc2)C(C)(C)C)cc1` (stereo partly drawn) [Compound 10, (2S,4R)-1-((2S)-2-(2-(4-(4-((4′-chloro-4-methyl-6-((4-(4-(((4-(((R)-4-morpholino-1-(phenylthio)butan-2-yl)amino)-3-((trifluoromethyl)sulfonyl)phenyl)sulfonyl)carbamoyl)phenyl)piperazin-1-yl)methyl)-2,3,4,5-tetrahydro-[1,1′-biphenyl]-4-yl)methyl)piperazin-1-yl)benzamido)acetamido)-3,3-dimethylbutanoyl)-4-hydroxy-N—((S)-1-(4-(4-methylthiazol-5-yl)phenyl)ethyl)pyrrolidine-2-carboxamide], the IC50 with RS4; 11 (setting [1]) and in the test with MOLT-4 (setting [2]) was 100 to 500 nM each time.
With `Cc1ncsc1-c1ccc([C@H](C)NC(=O)[C@@H]2C[C@@H](O)CN2C(=O)[C@@H](NC(=O)CCCNC(=O)c2ccc(N3CCN(CC4(C)CCC(c5ccc(Cl)cc5)=C(CN5CCN(c6ccc(C(=O)NS(=O)(=O)c7ccc(N[C@H](CCN8CCOCC8)CSc8ccccc8)c(S(=O)(=O)C(F)(F)F)c7)cc6)CC5)C4)CC3)cc2)C(C)(C)C)cc1` (stereo partly drawn) [Compound 11, (2S,4R)-1-((2S)-2-(4-(4-(4-((4′-chloro-4-methyl-6-((4-(4-(((4-(((R)-4-morpholino-1-(phenylthio)butan-2-yl)amino)-3-((trifluoromethyl)sulfonyl)phenyl)sulfonyl)carbamoyl)phenyl)piperazin-1-yl)methyl)-2,3,4,5-tetrahydro-[1,1′-biphenyl]-4-yl)methyl)piperazin-1-yl)benzamido)butanamido)-3,3-dimethylbutanoyl)-4-hydroxy-N—((S)-1-(4-(4-methylthiazol-5-yl)phenyl)ethyl)pyrrolidine-2-carboxamide], the IC50 with RS4; 11 (setting [1]) and in the test with MOLT-4 (setting [2]) was 20 to 100 nM each time.
Turning to `Cc1ncsc1-c1ccc([C@H](C)NC(=O)[C@@H]2C[C@@H](O)CN2C(=O)[C@@H](NC(=O)CNC(=O)c2ccc(N3CCN(CCN(C)CC4(C)CCC(c5ccc(Cl)cc5)=C(CN5CCN(c6ccc(C(=O)NS(=O)(=O)c7ccc(N[C@H](CCN8CCOCC8)CSc8ccccc8)c(S(=O)(=O)C(F)(F)F)c7)cc6)CC5)C4)CC3)cc2)C(C)(C)C)cc1` (stereo partly drawn) [Compound 13], the IC50 in the test on RS4; 11 (setting [1]) and in the test with MOLT-4 (setting [2]) was 100 to 500 nM in each case.
Turning to `Cc1ncsc1-c1ccc([C@H](C)NC(=O)[C@@H]2C[C@@H](O)CN2C(=O)[C@@H](NC(=O)CCCNC(=O)c2ccc(N3CCN(CCN(C)CC4(C)CCC(c5ccc(Cl)cc5)=C(CN5CCN(c6ccc(C(=O)NS(=O)(=O)c7ccc(N[C@H](CCN8CCOCC8)CSc8ccccc8)c(S(=O)(=O)C(F)(F)F)c7)cc6)CC5)C4)CC3)cc2)C(C)(C)C)cc1` (stereo partly drawn) [Compound 14], the IC50 with RS4; 11 (setting [1]) and in the test with MOLT-4 (setting [2]) was 20 to 100 nM each time.
Turning to `Cc1ncsc1-c1ccc([C@H](C)NC(=O)[C@@H]2C[C@@H](O)CN2C(=O)[C@@H](NC(=O)CCCCCNC(=O)c2ccc(N3CCN(CCN(C)CC4(C)CCC(c5ccc(Cl)cc5)=C(CN5CCN(c6ccc(C(=O)NS(=O)(=O)c7ccc(N[C@H](CCN8CCOCC8)CSc8ccccc8)c(S(=O)(=O)C(F)(F)F)c7)cc6)CC5)C4)CC3)cc2)C(C)(C)C)cc1` (stereo partly drawn) [Compound 15], the IC50 in the test on RS4; 11 (setting [1]) and in the test with MOLT-4 (setting [2]) was 20 to 100 nM throughout.
Take `Cc1ncsc1-c1ccc([C@H](C)NC(=O)[C@@H]2C[C@@H](O)CN2C(=O)[C@@H](NC(=O)CN2CCC(CN3CCN(CC4(C)CCC(c5ccc(Cl)cc5)=C(CN5CCN(c6ccc(C(=O)NS(=O)(=O)c7ccc(N[C@H](CCN8CCOCC8)CSc8ccccc8)c(S(=O)(=O)C(F)(F)F)c7)cc6)CC5)C4)CC3)CC2)C(C)(C)C)cc1` (stereo partly drawn) [Compound 16, (2S,4R)-1-((2S)-2-(2-(4-((4-((4′-chloro-4-methyl-6-((4-(4-(((4-(((R)-4-morpholino-1-(phenylthio)butan-2-yl)amino)-3-((trifluoromethyl)sulfonyl)phenyl)sulfonyl)carbamoyl)phenyl)piperazin-1-yl)methyl)-2,3,4,5-tetrahydro-[1,1′-biphenyl]-4-yl)methyl)piperazin-1-yl)methyl)piperidin-1-yl)acetamido)-3,3-dimethylbutanoyl)-4-hydroxy-N—((S)-1-(4-(4-methylthiazol-5-yl)phenyl)ethyl)pyrrolidine-2-carboxamide]: the concentration for half-maximal inhibition (IC50) in the test on RS4; 11 (setting [1]) is 20 to 100 nM; in the test with RS4; 11 (Table 5, 48 h, read-out: RS4 48 h IC50), 42.8 nM; in the test on MOLT-4 (setting [2]), under 20 nM; in the test with MOLT-4 (Table 5, 48 h, read-out: MOLT-4 48 h IC50), 12.7 nM.
As for `Cc1ncsc1-c1ccc([C@H](C)NC(=O)[C@@H]2C[C@@H](O)CN2C(=O)[C@@H](NC(=O)CC(=O)N2CCN(CC3CCN(CC4(C)CCC(c5ccc(Cl)cc5)=C(CN5CCN(c6ccc(C(=O)NS(=O)(=O)c7ccc(N[C@H](CCN8CCOCC8)CSc8ccccc8)c(S(=O)(=O)C(F)(F)F)c7)cc6)CC5)C4)CC3)CC2)C(C)(C)C)cc1` (stereo partly drawn) [Compound 17], the IC50 fell in the range of 20 to 100 nM with RS4; 11 (setting [1]) and 100 to 500 nM in the test with MOLT-4 (setting [2]).
The like results for `Cc1ncsc1-c1ccc([C@H](C)NC(=O)[C@@H]2C[C@@H](O)CN2C(=O)[C@@H](NC(=O)CCCC(=O)N2CCN(CC3CCN(CC4(C)CCC(c5ccc(Cl)cc5)=C(CN5CCN(c6ccc(C(=O)NS(=O)(=O)c7ccc(N[C@H](CCN8CCOCC8)CSc8ccccc8)c(S(=O)(=O)C(F)(F)F)c7)cc6)CC5)C4)CC3)CC2)C(C)(C)C)cc1` (stereo partly drawn) [Compound 18] were, in that order, 20 to 100 nM and 20 to 100 nM.
The corresponding values for `Cc1ncsc1-c1ccc([C@H](C)NC(=O)[C@@H]2C[C@@H](O)CN2C(=O)[C@@H](NC(=O)CCCCCC(=O)N2CCN(CC3CCN(CC4(C)CCC(c5ccc(Cl)cc5)=C(CN5CCN(c6ccc(C(=O)NS(=O)(=O)c7ccc(N[C@H](CCN8CCOCC8)CSc8ccccc8)c(S(=O)(=O)C(F)(F)F)c7)cc6)CC5)C4)CC3)CC2)C(C)(C)C)cc1` (stereo partly drawn) [Compound 19] are 20 to 100 nM and under 20 nM.
